Assay results published in patent US6750214B2, “Quinoline and quinazoline compounds useful in therapy” (priority 1995, dated 2004).

Tested on: human prostate
Experiment: Contractile responses of human prostate
Details: antagonist affinity estimate against (−)-noradrenaline contractions of human prostatic tissue strips; single antagonist concentration, incubated 2 hours
Description: Contractile Responses of Human Prostate
Prostatic tissue was cut into longitudinal strips (approximately 3×2×10 mm) and suspended in organ baths under a resting tension of 1 g in Krebs Ringer bicarbonate of the following composition (mM): NaCl (119), KCl (4.7), CaCl2 (2.5), KH2PO4 (1.2), MgSO4 (1.2), NaHCO3 (25), glucose (11), and gassed with 95% O2/5% CO2. The solution also contained 10 mM cocaine and 10 mM corticosterone. Tissues were exposed to a sensitising dose of (−)-noradrenaline ([…]) and washed over a 45 minute period. Isometric contractions were obtained in response to cumulative additions of (−)-noradrenaline to obtain control curves in all tissues. A further curve was then generated in the presence or absence of antagonist (incubated for 2 hours). Antagonist affinity estimates (pA2) were determined using a single concentration of competing antagonist, pA2=−log [A]/(DR-1) where the dose ratio (DR), relative to corresponding controls, was produced by a single concentration of antagonist [A], assuming competitive antagonism and Schild regression close to unity.

COc1cc2nc(N3CCCN(C(=O)N4C[C@H](O)[C@@H](O)C4)CC3)nc(N)c2c(-c2ccccc2)c1OC.Cl [Example 17, 4-Amino-6,7-dimethoxy-2-{4-[1-(3S,4S-dihydroxypyrrolidine)carbonyl]-1,4-diazepan-1-yl}-5-phenylquinazoline hydrochloride]
pA2 value: 8.5
